Measured values reported in ChEMBL document CHEMBL1136210, “Bone-targeted pyrido[2,3-d]pyrimidin-7-ones: potent inhibitors of Src tyrosine kinase as novel antiresorptive agents” (Bioorg Med Chem Lett, 2003).

Columns and labels:
[1] = Compound was tested for toxicity by the presence of tartrate resistant acid phosphatase (TRAP)-positive cell; Normal; format: functional
Oryctolagus cuniculus = species on record: Oryctolagus cuniculus; assay: Inhibition of rabbit-osteoclast mediated resorption of dentine slices
[2] = molecular target: Proto-oncogene tyrosine-protein kinase Src (Homo sapiens, UniProt P12931); assay: Inhibition of Src protein tyrosine kinase
Chain of Proto-oncogene tyrosine-protein kinase Src (P12931 2-536 limits assumed): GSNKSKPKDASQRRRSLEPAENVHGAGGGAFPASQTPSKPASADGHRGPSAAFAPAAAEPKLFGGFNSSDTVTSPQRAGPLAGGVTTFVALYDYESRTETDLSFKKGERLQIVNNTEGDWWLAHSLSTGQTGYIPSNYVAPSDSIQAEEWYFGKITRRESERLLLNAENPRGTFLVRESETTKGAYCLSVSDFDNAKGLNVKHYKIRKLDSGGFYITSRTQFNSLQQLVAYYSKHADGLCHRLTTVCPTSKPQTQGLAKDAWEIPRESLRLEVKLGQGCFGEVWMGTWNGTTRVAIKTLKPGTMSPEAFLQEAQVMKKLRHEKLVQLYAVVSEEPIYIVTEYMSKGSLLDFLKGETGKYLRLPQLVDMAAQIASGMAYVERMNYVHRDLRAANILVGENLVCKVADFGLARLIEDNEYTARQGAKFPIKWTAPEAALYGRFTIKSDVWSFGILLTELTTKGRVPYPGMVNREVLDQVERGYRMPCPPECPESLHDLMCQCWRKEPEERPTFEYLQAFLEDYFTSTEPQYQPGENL

SMILES	TRAP staining [1]	IC50 (Oryctolagus cuniculus) [nM]	IC50 [2] [nM]
Cn1c(=O)c(-c2c(Cl)cccc2Cl)cc2cnc(Nc3ccc(P(=O)(O)CP(=O)(O)O)cc3)nc21	Not toxic	3000	
CN(C)CCCn1c(=O)c(-c2c(Cl)cccc2Cl)cc2cnc(Nc3ccc(P(=O)(O)CP(=O)(O)O)cc3)nc21	Not toxic	800	
Cn1c(=O)c(-c2c(Cl)cccc2Cl)cc2cnc(Nc3cccc(P(=O)(O)CP(=O)(O)O)c3)nc21	Not toxic	4000	
Cn1c(=O)c(-c2c(Cl)cccc2Cl)cc2cnc(Nc3ccccc3)nc21			16
